{"source": "patent US8633243B2", "about": "“Forms of CDDO methyl ester” (priority 2007, dated 2014)", "key": {"[1]": {"system": "MMP-9, TNFα, IL-8, and VEGF", "assay": "Phase I trial, circulating inflammatory cytokines", "type": "in vivo, human", "protocol": "Based on the known anti-inflammatory properties of CDDO-Me, circulating inflammatory cytokines were evaluated in patients in the Phase I trial. At doses as low as 5 mg/day, there was a reduction of several circulating pro-inflammatory cytokines and chemokines including MMP-9, TNFα, IL-8, and VEGF."}, "[2]": {"system": "4T1 Syngeneic Breast Cancer", "settings": "i.v., cited from earlier work"}, "[3]": {"system": "MCF-7/Her-2 Breast Cancer Xenograft", "settings": "i.v.; doses at or below the MTD; Konopleva et al. 2006; cited from earlier work"}, "[4]": {"system": "COX-2, iNOS, phosphorylated STAT3 (pSTAT3)", "assay": "Phase I trial, tumor biopsy data"}, "[5]": {"system": "NCI-60 tumor cell line panel", "type": "cell-based", "settings": "average over panel"}, "[6]": {"system": "advanced (metastatic) cancer", "assay": "Phase I dose-escalation trial, safety and anti-tumor activity", "type": "in vivo, human", "from_the_text": "Both the safety and anti-tumor activity of CDDO-Me were reviewed. In addition, the biological effects of CDDO-Me were characterized. […] Several patients (approximately 75% of evaluable patients) were considered to have stable disease (based on standard radiological and clinical criteria) at the first evaluation point following completion of the second treatment cycle. […] Five patients, including patients with melanoma and renal cell cancer, continued to show stable disease, some with evidence of regression of individual tumor lesions, after four cycles of treatment. Four patients were considered to have stable disease after at least six cycles of treatment."}, "[7]": {"system": "NQO1 (NAD(P)H:quinone oxidoreductase)", "assay": "Phase I trial, phase 2 gene products in peripheral blood mononuclear cells", "type": "in vivo, human", "settings": "doses of 10 mg/day and above", "from_the_text": "Additionally, phase 2 gene products, which include antioxidant and detoxification enzymes, have been monitored in peripheral blood mononuclear cells of patients in the Phase I study."}, "[8]": {"assay": "Approximate solubility, solvent addition method", "type": "physicochemical", "settings": "thermodynamic from solid, room temperature", "protocol": "A weighed sample was treated with aliquots of the test solvent at room temperature. Complete dissolution of the test material was determined by visual inspection. Solubility was estimated based on the total solvent used to provide complete dissolution. The actual solubility may be greater than the value calculated because of the use of solvent aliquots that were too large or due to a slow rate of dissolution. […] If complete dissolution was achieved as a result of only one aliquot addition, the solubility is expressed as “greater than.” Approximate solubilities were determined in various solvents at room temperature, with the results as provided in Table 2."}, "[9]": {"assay": "Phase I trial, serum creatinine", "settings": "day 21"}, "[10]": {"system": "L3.6PL Pancreatic Cancer Xenograft", "assay": "L3.6PL Pancreatic Cancer Xenograft", "settings": "i.v."}, "[11]": {"system": "DU-145 Prostate Cancer Xenograft", "assay": "DU-145 Prostate Cancer Xenograft", "settings": "p.o."}, "[12]": {"system": "NCI-H460 Lung Cancer Xenograft", "assay": "NCI-H460 Lung Cancer Xenograft", "settings": "p.o."}}, "note": "Where two headings read alike, the source gives them in different places.", "data": [{"compound": "COC(=O)[C@]12CCC(C)(C)C[C@H]1[C@H]1C(=O)C=C3[C@@]4(C)C=C(C#N)C(=O)C(C)(C)[C@@H]4CC[C@@]3(C)[C@]1(C)CC2", "note": "[CDDO methyl ester, methyl 2-cyano-3,12-dioxoleana-1,9(11)-dien-28-oate]", "values": [{"measurement": "circulating TNFα", "setting": "[1]; 3 patients with elevated baseline TNF levels, 10, 20 and 40 mg per day", "value": "reduced substantially or to below detectable limits"}, {"measurement": "circulating pro-inflammatory cytokines and chemokines including MMP-9, TNFα, IL-8, and VEGF", "setting": "[1]; doses as low as 5 mg/day", "value": "reduction"}, {"measurement": "DRUG ACTIVITY, suppression", "setting": "[2]; Delayed Treatment", "value": 67, "unit": "% suppression"}, {"measurement": "animals tumor-free at sacrifice", "setting": "[2]; Delayed Treatment, sacrifice on Day 95", "value": "33% of animals tumor-free at"}, {"measurement": "DRUG ACTIVITY, suppression", "setting": "[2]; Early Treatment, Ling et al. 2007", "value": 100, "unit": "% suppression"}, {"measurement": "animals tumor-free at sacrifice", "setting": "[2]; Early Treatment, sacrifice on Day 85", "value": "All animals remained tumor-free"}, {"measurement": "DRUG ACTIVITY, regression", "setting": "[3]", "value": 15, "unit": "% regression"}, {"measurement": "tumor tissue levels of COX-2, iNOS and pSTAT3", "setting": "[4]; biopsies of several patients after two cycles", "value": "pronounced reductions"}, {"measurement": "tumor cell death in biopsy", "setting": "[4]; several patients, after two cycles", "value": "pronounced degree of tumor cell death"}, {"measurement": "IC50", "setting": "[5]", "value": "~35", "unit": "nM"}, {"measurement": "drug-related adverse events", "setting": "[6]; 5 to 900 mg/day, 21 days on / 7 days rest", "value": "no significant drug-related adverse events reported"}, {"measurement": "patients considered to have stable disease", "setting": "[6]; after at least six cycles of treatment", "value": "Four"}, {"measurement": "patients continuing to show stable disease", "setting": "[6]; after four cycles of treatment", "value": "Five"}, {"measurement": "tolerability", "setting": "[6]; capsules of micronized Form A, 5 to 900 mg/day, 21 days on / 7 days rest, 21 adult patients", "value": "very well tolerated"}, {"measurement": "evaluable patients with stable disease", "setting": "[6]; first evaluation point after the second treatment cycle", "value": "approximately 75%"}, {"measurement": "new metastases", "setting": "[6]; patients receiving at least 40 mg per day", "value": "No new metastases developed"}, {"measurement": "NQO1 in peripheral blood mononuclear cells", "setting": "[7]", "value": "Significant induction"}, {"measurement": "solubility", "setting": "[8]; isopropanol/water (10:1), organic solvent or mixture, (10:1) Isopropanol/water", "value": 4, "unit": "mg/mL"}, {"measurement": "solubility", "setting": "[8]; organic solvent or mixture, 1,4-Dioxane", "value": 21, "unit": "mg/mL"}, {"measurement": "solubility", "setting": "[8]; organic solvent or mixture, ACN (acetonitrile)", "value": 66, "unit": "mg/mL"}, {"measurement": "solubility", "setting": "[8]; organic solvent or mixture, Acetone", "value": 70, "unit": "mg/mL"}, {"measurement": "solubility", "setting": "[8]; organic solvent or mixture, DCM (dichloromethane)", "value": "> 194", "unit": "mg/mL"}, {"measurement": "solubility", "setting": "[8]; organic solvent or mixture, EtOAc (ethyl acetate)", "value": 36, "unit": "mg/mL"}, {"measurement": "solubility", "setting": "[8]; organic solvent or mixture, EtOH (ethanol)", "value": 4, "unit": "mg/mL"}, {"measurement": "solubility", "setting": "[8]; organic solvent or mixture, Hexanes", "value": "< 1", "unit": "mg/mL"}, {"measurement": "solubility", "setting": "[8]; organic solvent or mixture, MTBE (tert-butyl methyl ether)", "value": 4, "unit": "mg/mL"}, {"measurement": "solubility", "setting": "[8]; organic solvent or mixture, MeOH (methanol)", "value": 8, "unit": "mg/mL"}, {"measurement": "solubility", "setting": "[8]; organic solvent or mixture, THF (tetrahydrofuran)", "value": 97, "unit": "mg/mL"}, {"measurement": "solubility", "setting": "[8]; organic solvent or mixture, Toluene", "value": 38, "unit": "mg/mL"}, {"measurement": "solubility", "setting": "[8]; Water", "value": "< 0.1", "unit": "mg/mL"}, {"measurement": "patients with serum creatinine significantly lower than pre-treatment baseline", "setting": "[9]", "value": "more than 80%"}, {"measurement": "comparison with Gemcitabine", "setting": "[10]", "value": "CDDO-Me outperformed"}, {"measurement": "DRUG ACTIVITY, TGI (Tumor Growth Inhibition)", "setting": "[10]; doses at or below the MTD", "value": 51, "unit": "% TGI"}, {"measurement": "DRUG ACTIVITY, TGI (Tumor Growth Inhibition)", "setting": "[11]; doses at or below the MTD", "value": 77, "unit": "% TGI"}, {"measurement": "TGI, multiple schedules tested", "setting": "[11]; multiple schedules", "value": "60-77%"}, {"measurement": "comparison with radiation", "setting": "[12]", "value": "Me as effective as radiation"}, {"measurement": "DRUG ACTIVITY, TGI (Tumor Growth Inhibition)", "setting": "[12]; doses at or below the MTD", "value": 78, "unit": "% TGI^1"}]}]}
